Experimental data reported in publication PMC6576746, “Rational discovery of dual-indication multi-target PDE/Kinase inhibitor for precision anti-cancer therapy using structural systems pharmacology” (PLoS Computational Biology, 2019).

What was measured:
Experiment in all cases: biochemical
Set-up in all cases: DiscoverX KinomeScan competition binding assay across human kinases; per cent of control at 10 and 100 uM
EPHB2 = EPHB2 (Homo sapiens, UniProt P29323); settings: competition binding, % of control; read-out: Percent Control (100 uM Levosimendan)
Chain of EPHB2 (P29323 whole entry): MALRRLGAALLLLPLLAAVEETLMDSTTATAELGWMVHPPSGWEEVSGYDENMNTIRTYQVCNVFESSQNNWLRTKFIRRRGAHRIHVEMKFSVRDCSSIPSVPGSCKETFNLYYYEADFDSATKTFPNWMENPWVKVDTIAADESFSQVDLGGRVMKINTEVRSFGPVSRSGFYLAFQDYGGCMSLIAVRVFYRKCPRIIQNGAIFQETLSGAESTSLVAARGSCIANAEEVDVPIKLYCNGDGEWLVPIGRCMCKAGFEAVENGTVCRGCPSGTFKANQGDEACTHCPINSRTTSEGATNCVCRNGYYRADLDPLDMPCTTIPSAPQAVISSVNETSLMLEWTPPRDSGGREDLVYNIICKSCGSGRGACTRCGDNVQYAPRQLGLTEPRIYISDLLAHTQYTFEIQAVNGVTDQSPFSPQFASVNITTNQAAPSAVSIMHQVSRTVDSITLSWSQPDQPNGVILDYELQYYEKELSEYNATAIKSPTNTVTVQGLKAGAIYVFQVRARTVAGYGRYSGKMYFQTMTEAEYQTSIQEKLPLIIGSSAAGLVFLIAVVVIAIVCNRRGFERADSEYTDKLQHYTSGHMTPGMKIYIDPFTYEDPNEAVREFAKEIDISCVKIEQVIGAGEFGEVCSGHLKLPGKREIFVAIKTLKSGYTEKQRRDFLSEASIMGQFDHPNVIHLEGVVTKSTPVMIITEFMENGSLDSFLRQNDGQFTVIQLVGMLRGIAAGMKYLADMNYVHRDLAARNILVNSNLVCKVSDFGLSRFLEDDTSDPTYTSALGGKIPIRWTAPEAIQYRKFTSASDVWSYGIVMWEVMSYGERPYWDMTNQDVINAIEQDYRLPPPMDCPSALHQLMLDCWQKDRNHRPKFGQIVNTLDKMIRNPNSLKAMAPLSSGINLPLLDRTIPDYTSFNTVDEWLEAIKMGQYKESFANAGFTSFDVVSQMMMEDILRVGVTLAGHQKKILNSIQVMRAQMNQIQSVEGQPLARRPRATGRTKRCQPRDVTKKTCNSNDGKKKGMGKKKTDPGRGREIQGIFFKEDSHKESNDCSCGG
How it was run: (§1)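 KinomeScan competition binding was run across a human kinase panel at 10 μM and 100 μM levosimendan. Results are %control = (test − positive control)/(negative control − positive control) × 100.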

SRPK2 = SRPK2 (Homo sapiens, UniProt P78362); settings: competition binding, % of control; read-out: Percent Control (100 uM Levosimendan)
Chain of SRPK2 (P78362 whole entry): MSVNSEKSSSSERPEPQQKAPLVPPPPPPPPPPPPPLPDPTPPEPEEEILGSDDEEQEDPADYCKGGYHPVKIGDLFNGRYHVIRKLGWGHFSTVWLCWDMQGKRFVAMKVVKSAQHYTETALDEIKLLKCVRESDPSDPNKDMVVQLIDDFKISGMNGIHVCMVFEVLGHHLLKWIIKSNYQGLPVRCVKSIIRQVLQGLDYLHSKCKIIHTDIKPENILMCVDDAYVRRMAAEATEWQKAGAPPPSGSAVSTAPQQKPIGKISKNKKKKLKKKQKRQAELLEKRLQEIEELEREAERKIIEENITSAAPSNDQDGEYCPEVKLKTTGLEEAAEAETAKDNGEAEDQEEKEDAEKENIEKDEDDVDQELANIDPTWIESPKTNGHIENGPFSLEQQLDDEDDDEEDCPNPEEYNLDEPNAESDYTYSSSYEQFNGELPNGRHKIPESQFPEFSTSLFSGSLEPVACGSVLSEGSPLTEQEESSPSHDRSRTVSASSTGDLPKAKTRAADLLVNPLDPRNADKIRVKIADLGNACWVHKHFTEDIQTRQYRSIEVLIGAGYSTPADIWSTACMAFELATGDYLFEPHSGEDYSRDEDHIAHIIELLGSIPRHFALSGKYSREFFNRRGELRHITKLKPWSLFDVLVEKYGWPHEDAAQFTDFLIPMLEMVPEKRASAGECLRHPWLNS
How it was run: as §1

ALK(L1196M) = ALK(L1196M) (Homo sapiens, UniProt Q9UM73, L1196M); settings: competition binding, % of control; read-out: Percent Control (100 uM Levosimendan)
How it was run: as §1

PAK3 = PAK3 (Homo sapiens, UniProt O75914); settings: competition binding, % of control; read-out: Percent Control (100 uM Levosimendan)
How it was run: as §1

DRAK2 = target: T1, DRAK2 (Homo sapiens, UniProt O94768); settings: competition binding, % of control
T1 construct: gene STK17B
T1 sequence (O94768 whole entry): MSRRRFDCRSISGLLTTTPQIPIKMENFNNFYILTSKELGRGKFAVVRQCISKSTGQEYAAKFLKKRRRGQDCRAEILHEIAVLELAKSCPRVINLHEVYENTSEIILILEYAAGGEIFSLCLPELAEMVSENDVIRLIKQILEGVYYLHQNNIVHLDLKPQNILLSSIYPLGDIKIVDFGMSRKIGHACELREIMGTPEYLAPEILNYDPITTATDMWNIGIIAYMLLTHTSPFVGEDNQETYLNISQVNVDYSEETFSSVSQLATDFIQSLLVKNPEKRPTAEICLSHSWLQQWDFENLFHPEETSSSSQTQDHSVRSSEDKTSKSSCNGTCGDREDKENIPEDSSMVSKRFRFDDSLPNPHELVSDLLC
How it was run: as §1

ROS1 = ROS1 (Homo sapiens, UniProt P08922); settings: competition binding, % of control; read-out: Percent Control (100 uM Levosimendan)
How it was run: as §1

EPHA2 = EPHA2 (Homo sapiens, UniProt P29317); settings: competition binding, % of control; read-out: Percent Control (100 uM Levosimendan)
Chain of EPHA2 (P29317 whole entry): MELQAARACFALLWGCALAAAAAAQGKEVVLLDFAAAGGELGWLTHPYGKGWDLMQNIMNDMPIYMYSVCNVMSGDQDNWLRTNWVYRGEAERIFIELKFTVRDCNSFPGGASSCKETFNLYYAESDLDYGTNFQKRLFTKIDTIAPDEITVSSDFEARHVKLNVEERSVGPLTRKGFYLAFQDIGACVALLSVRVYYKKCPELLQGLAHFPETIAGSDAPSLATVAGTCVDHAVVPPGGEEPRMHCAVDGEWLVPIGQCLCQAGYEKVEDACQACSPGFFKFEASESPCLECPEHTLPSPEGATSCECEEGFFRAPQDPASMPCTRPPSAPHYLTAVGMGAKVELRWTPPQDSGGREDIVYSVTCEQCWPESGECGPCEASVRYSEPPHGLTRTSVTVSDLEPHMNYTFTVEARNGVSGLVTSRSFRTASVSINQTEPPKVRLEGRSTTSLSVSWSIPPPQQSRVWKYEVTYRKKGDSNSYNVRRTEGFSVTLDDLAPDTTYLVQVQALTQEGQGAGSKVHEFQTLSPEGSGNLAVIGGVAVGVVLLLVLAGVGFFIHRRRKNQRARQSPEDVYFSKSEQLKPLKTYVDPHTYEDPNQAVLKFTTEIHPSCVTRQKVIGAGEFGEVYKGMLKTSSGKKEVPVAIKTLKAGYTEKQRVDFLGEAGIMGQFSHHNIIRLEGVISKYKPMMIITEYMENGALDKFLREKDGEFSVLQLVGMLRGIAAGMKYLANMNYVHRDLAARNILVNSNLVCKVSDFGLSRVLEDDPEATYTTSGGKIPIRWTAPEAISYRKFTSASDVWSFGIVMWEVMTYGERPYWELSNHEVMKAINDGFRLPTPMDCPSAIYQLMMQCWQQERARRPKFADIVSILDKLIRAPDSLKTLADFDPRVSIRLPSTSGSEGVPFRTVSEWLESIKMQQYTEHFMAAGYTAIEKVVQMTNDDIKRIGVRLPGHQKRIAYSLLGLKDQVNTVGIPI
How it was run: as §1

BMPR1B = BMPR1B (Homo sapiens, UniProt O00238); settings: competition binding, % of control
Chain of BMPR1B (O00238 whole entry): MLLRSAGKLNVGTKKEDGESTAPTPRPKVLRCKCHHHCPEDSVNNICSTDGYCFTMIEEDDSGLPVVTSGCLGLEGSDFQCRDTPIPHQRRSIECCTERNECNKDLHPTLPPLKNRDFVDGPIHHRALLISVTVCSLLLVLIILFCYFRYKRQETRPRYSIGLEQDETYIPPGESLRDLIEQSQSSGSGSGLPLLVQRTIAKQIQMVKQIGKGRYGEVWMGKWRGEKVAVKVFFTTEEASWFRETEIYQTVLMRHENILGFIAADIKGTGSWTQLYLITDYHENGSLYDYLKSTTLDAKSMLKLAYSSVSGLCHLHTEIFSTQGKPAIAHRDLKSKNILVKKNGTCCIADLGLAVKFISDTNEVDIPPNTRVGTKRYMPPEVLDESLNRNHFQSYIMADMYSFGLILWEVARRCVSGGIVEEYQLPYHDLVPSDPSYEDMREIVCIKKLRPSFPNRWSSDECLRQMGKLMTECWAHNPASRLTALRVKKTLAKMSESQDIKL
How it was run: as §1

AKT3 = AKT3 (Homo sapiens, UniProt Q9Y243); settings: competition binding, % of control
Chain of AKT3 (Q9Y243 whole entry): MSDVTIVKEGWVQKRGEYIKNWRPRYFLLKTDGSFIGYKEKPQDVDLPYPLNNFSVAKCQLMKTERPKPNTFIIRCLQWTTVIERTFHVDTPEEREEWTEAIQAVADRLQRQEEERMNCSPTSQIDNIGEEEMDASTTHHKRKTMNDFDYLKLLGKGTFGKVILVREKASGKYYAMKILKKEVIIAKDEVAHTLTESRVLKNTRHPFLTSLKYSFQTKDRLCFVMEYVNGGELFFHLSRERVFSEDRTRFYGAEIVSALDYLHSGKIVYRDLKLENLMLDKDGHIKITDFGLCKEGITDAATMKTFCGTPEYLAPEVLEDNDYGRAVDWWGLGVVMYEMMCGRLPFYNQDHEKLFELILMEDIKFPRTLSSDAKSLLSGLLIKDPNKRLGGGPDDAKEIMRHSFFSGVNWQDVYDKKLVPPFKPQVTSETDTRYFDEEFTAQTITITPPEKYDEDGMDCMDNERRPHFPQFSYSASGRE
How it was run: as §1

SYK = SYK (Homo sapiens, UniProt P43405); settings: competition binding, % of control; read-out: Percent Control (100 uM Levosimendan)
How it was run: as §1

CLK1 = CLK1 (Homo sapiens, UniProt P49759); settings: competition binding, % of control; read-out: Percent Control (100 uM Levosimendan)
How it was run: as §1

PRKD3 = PRKD3 (Homo sapiens, UniProt O94806); settings: competition binding, % of control; read-out: Percent Control (100 uM Levosimendan)
How it was run: as §1

[1] = target: EGFR(L747-E749del, A750P) (Homo sapiens, UniProt P00533, A750P/DEL747-749); settings: competition binding, % of control; read-out: Percent Control (100 uM Levosimendan)
How it was run: as §1

ERK5 = target: T2, ERK5 (Homo sapiens, UniProt Q13164); settings: competition binding, % of control; read-out: Percent Control (100 uM Levosimendan)
T2 construct: gene MAPK7
How it was run: as §1

NDR1 = target: T3, NDR1 (Homo sapiens, UniProt Q15208); settings: competition binding, % of control; read-out: Percent Control (100 uM Levosimendan)
T3 construct: gene STK38
T3 sequence (Q15208 whole entry): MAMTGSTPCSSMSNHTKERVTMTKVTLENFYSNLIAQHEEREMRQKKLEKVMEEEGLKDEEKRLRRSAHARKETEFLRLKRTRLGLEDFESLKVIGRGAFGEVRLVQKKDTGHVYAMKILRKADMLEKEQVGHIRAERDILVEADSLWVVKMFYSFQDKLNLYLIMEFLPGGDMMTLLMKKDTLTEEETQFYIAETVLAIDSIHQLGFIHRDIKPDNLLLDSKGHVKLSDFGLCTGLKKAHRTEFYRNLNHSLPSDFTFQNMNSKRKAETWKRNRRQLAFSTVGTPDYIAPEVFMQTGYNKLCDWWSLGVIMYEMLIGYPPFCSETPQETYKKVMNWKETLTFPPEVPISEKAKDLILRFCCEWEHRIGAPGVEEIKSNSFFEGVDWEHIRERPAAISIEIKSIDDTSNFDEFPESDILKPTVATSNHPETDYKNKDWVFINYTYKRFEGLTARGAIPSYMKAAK
How it was run: as §1

PRKG1 = PRKG1 (Homo sapiens, UniProt Q13976); settings: competition binding, % of control; read-out: Percent Control (100 uM Levosimendan)
How it was run: as §1

LCK = LCK (Homo sapiens, UniProt P06239); settings: competition binding, % of control
Chain of LCK (P06239 whole entry): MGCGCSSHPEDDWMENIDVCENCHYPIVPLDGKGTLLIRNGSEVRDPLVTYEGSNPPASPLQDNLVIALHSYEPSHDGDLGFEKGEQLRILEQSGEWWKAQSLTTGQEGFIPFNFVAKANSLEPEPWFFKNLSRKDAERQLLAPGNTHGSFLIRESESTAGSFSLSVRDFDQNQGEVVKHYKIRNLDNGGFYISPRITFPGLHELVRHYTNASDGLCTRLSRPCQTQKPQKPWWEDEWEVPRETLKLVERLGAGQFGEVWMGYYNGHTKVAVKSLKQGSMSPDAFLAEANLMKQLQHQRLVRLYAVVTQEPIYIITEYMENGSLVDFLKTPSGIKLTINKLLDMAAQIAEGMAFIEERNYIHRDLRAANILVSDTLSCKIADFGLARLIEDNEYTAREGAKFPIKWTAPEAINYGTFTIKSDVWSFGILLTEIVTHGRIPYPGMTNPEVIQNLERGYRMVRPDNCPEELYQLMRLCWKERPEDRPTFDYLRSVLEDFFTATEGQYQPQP
How it was run: as §1

CAMK1G = CAMK1G (Homo sapiens, UniProt Q96NX5); settings: competition binding, % of control; read-out: Percent Control (100 uM Levosimendan)
How it was run: as §1

IGF1R = IGF1R (Homo sapiens, UniProt P08069); settings: competition binding, % of control; read-out: Percent Control (100 uM Levosimendan)
How it was run: as §1

[2] = read-out: Percent Control (10 uM Levosimendan)
[3] = read-out: Percent Control (100 uM Levosimendan)

remaining binding at 100 µM (EPHB2): 77%
remaining binding at 100 µM (SRPK2): 100%
remaining binding at 100 µM (ALK(L1196M)): 72%
remaining binding at 100 µM (PAK3): 99%
remaining binding at 10 µM (DRAK2; [2]): 99%
remaining binding at 100 µM (DRAK2; [3]): 20%
remaining binding at 100 µM (ROS1): 62%
remaining binding at 100 µM (EPHA2): 76%
remaining binding at 10 µM (BMPR1B; [2]): 82%
remaining binding at 100 µM (BMPR1B; [3]): 36%
remaining binding at 10 µM (AKT3; [2]): 96%
remaining binding at 100 µM (AKT3; [3]): 37%
remaining binding at 100 µM (SYK): 78%
remaining binding at 100 µM (CLK1): 89%
remaining binding at 100 µM (PRKD3): 100%
remaining binding at 100 µM [1]: 64%
remaining binding at 100 µM (ERK5): 100%
remaining binding at 100 µM (NDR1): 62%
remaining binding at 100 µM (PRKG1): 64%
remaining binding at 10 µM (LCK; [2]): 89%
remaining binding at 100 µM (LCK; [3]): 46%
remaining binding at 100 µM (CAMK1G): 62%
remaining binding at 100 µM (IGF1R): 86%
SMILES: C[C@@H]1CC(=O)NN=C1c1ccc(NN=C(C#N)C#N)cc1 [levosimendan]
